Tests used:
Settings in all cases: 250 g/ha, evaluated after 13 days, five-point scale
[1] = system: Amaranthus retoflexus (AMARE); test: Post-emergence herbicidal glasshouse test; type: in vivo
AMAPA [2] = test: Post-emergence herbicidal glasshouse test; type: in vivo, Amaranthus tuberculatus
[3] = system: Echinochloa crus-galli (ECHCG); test: Post-emergence herbicidal glasshouse test; type: in vivo
[4] = system: Ipomoea hederacea (IPOHE); test: Post-emergence herbicidal glasshouse test; type: in vivo
Setaria faberi (SETFA) [5] = test: Post-emergence herbicidal glasshouse test; type: in vivo
[6] = system: Amaranthus retoflexus (AMARE); test: Pre-emergence herbicidal glasshouse test; type: in vivo
AMAPA [7] = test: Pre-emergence herbicidal glasshouse test; type: in vivo, Amaranthus tuberculatus
[8] = system: Echinochloa crus-galli (ECHCG); test: Pre-emergence herbicidal glasshouse test; type: in vivo
[9] = system: Ipomoea hederacea (IPOHE); test: Pre-emergence herbicidal glasshouse test; type: in vivo
Setaria faberi (SETFA) [10] = test: Pre-emergence herbicidal glasshouse test; type: in vivo

| SMILES | percentage damage caused to the plant, AMARE [1] | percentage damage caused to the plant, AMAPA (AMAPA [2]) | percentage damage caused to the plant, ECHCG [3] | percentage damage caused to the plant, IPOHE [4] | percentage damage caused to the plant, SETFA (Setaria faberi (SETFA) [5]) | percentage damage caused to the plant, AMARE [6] | percentage damage caused to the plant, AMAPA (AMAPA [7]) | percentage damage caused to the plant, ECHCG [8] | percentage damage caused to the plant, IPOHE [9] | percentage damage caused to the plant, SETFA (Setaria faberi (SETFA) [10]) |
| --- | --- | --- | --- | --- | --- | --- | --- | --- | --- | --- |
| N#Cc1cnc(Oc2cccc3nc(C(F)(F)F)ncc23)nc1 [Compound 1.003] | 1 (1=0-20%) | 1 (1=0-20%) | 1 (1=0-20%) | 1 (1=0-20%) | 1 (1=0-20%) | 1 (1=0-20%) | 1 (1=0-20%) | 1 (1=0-20%) | 1 (1=0-20%) | 1 (1=0-20%) |
| Cc1cnc(Oc2cccc3nc(C(F)(F)F)ncc23)nc1 [Compound 1.004] | 3 (3=41-60%) | 4 (4=61-80%) | 3 (3=41-60%) | 4 (4=61-80%) | 4 (4=61-80%) | 5 (5=81-100%) | 4 (4=61-80%) | 5 (5=81-100%) | 4 (4=61-80%) | 4 (4=61-80%) |
| FC(F)(F)c1ncc2c(Oc3ncc(Br)cn3)cccc2n1 [Compound 1.005] | 4 (4=61-80%) | 5 (5=81-100%) | 4 (4=61-80%) | 4 (4=61-80%) | 4 (4=61-80%) | 5 (5=81-100%) | 5 (5=81-100%) | 3 (3=41-60%) | 3 (3=41-60%) | 4 (4=61-80%) |
| Fc1cc(Cl)cnc1Oc1cccc2nc(C(F)(F)F)ncc12 [Compound 1.006] | 2 (2=21-40%) | 1 (1=0-20%) | 1 (1=0-20%) | 2 (2=21-40%) | 1 (1=0-20%) | 1 (1=0-20%) | 1 (1=0-20%) | 1 (1=0-20%) | 1 (1=0-20%) | 1 (1=0-20%) |
| FC(F)(F)c1ncc2c(Oc3ncccn3)cccc2n1 [Compound 1.008] | 3 (3=41-60%) | 3 (3=41-60%) | 1 (1=0-20%) | 3 (3=41-60%) | 1 (1=0-20%) | 4 (4=61-80%) | 4 (4=61-80%) | 1 (1=0-20%) | 3 (3=41-60%) | 4 (4=61-80%) |
| FC(F)Oc1cnc(Oc2cccc3nc(C(F)(F)F)ncc23)nc1 [Compound 1.009] | 1 (1=0-20%) | 1 (1=0-20%) | 1 (1=0-20%) | 1 (1=0-20%) | 1 (1=0-20%) | 1 (1=0-20%) | 2 (2=21-40%) | 1 (1=0-20%) | 1 (1=0-20%) | 1 (1=0-20%) |
| COc1ncc2c(Oc3ncc(Cl)cn3)cccc2n1 [Compound 1.016] | 4 (4=61-80%) | 5 (5=81-100%) | 1 (1=0-20%) | 2 (2=21-40%) | 1 (1=0-20%) | 5 (5=81-100%) | 5 (5=81-100%) | 3 (3=41-60%) | 4 (4=61-80%) | 3 (3=41-60%) |
| FC(F)c1ncc2c(Oc3ncc(Cl)cn3)cccc2n1 [Compound 1.019] | 4 (4=61-80%) | 3 (3=41-60%) | 2 (2=21-40%) | 4 (4=61-80%) | 3 (3=41-60%) | 5 (5=81-100%) | 5 (5=81-100%) | 5 (5=81-100%) | 4 (4=61-80%) | 5 (5=81-100%) |
| FC(F)(F)c1ccc2c(Oc3ncc(Cl)cn3)cccc2n1 [Compound 1.020, 5-(5-chloropyrimidin-2-yl)oxy-2 (trifluoromethyl)quinoline] | 5 (5=81-100%) | 5 (5=81-100%) | 4 (4=61-80%) | 4 (4=61-80%) | 5 (5=81-100%) | 5 (5=81-100%) | 5 (5=81-100%) | 5 (5=81-100%) | 4 (4=61-80%) | 5 (5=81-100%) |
| Cc1cc(C(F)(F)F)nc2cccc(Oc3ncc(Cl)cn3)c12 [Compound 1.021] | 3 (3=41-60%) | 2 (2=21-40%) | 1 (1=0-20%) | 2 (2=21-40%) | 1 (1=0-20%) | 1 (1=0-20%) | 1 (1=0-20%) | 1 (1=0-20%) | 1 (1=0-20%) | 1 (1=0-20%) |
| Clc1cnc(Oc2cccc3ccncc23)nc1 [Compound 1.022] | 1 (1=0-20%) | 2 (2=21-40%) | 1 (1=0-20%) | 1 (1=0-20%) | 1 (1=0-20%) | 1 (1=0-20%) | 1 (1=0-20%) | 1 (1=0-20%) | 1 (1=0-20%) | 1 (1=0-20%) |
| Cc1cnc(Oc2cccc3nc(C(F)(F)F)ccc23)nc1 [Compound 1.040] | 4 (4=61-80%) | 4 (4=61-80%) | 4 (4=61-80%) | 5 (5=81-100%) | 4 (4=61-80%) | 5 (5=81-100%) | 5 (5=81-100%) | 5 (5=81-100%) | 5 (5=81-100%) | 5 (5=81-100%) |
| FC(F)(F)c1ccc2c(Oc3ncc(Br)cn3)cccc2n1 [Compound 1.041] | 5 (5=81-100%) | 5 (5=81-100%) | 2 (2=21-40%) | 3 (3=41-60%) | 4 (4=61-80%) | 5 (5=81-100%) | 5 (5=81-100%) | 3 (3=41-60%) | 2 (2=21-40%) | 4 (4=61-80%) |
| FC(F)(Cl)c1ncc2c(Oc3ncc(Cl)cn3)ccc(Cl)c2n1 [Compound 1.044] | 3 (3=41-60%) | 3 (3=41-60%) | 1 (1=0-20%) | 2 (2=21-40%) | 3 (3=41-60%) | 3 (3=41-60%) | 5 (5=81-100%) | 2 (2=21-40%) | 1 (1=0-20%) | 5 (5=81-100%) |
| Cc1ccc(Oc2ncc(Br)cn2)c2cnc(C(F)(F)Cl)nc12 [Compound 1.047] | 2 (2=21-40%) | 2 (2=21-40%) | 1 (1=0-20%) | 2 (2=21-40%) | 1 (1=0-20%) | 2 (2=21-40%) | 2 (2=21-40%) | 1 (1=0-20%) | 1 (1=0-20%) | 1 (1=0-20%) |
